Results taken from ChEMBL document CHEMBL2074388 (Am J Physiol Renal Physiol, 2001).

Tests used:
[1] = target: T1, Solute carrier family 22 member 2 (Rattus norvegicus, UniProt Q9R0W2); format: functional, cell-based, Xenopus laevis, Oocyte
T1 sequence (Q9R0W2 whole entry): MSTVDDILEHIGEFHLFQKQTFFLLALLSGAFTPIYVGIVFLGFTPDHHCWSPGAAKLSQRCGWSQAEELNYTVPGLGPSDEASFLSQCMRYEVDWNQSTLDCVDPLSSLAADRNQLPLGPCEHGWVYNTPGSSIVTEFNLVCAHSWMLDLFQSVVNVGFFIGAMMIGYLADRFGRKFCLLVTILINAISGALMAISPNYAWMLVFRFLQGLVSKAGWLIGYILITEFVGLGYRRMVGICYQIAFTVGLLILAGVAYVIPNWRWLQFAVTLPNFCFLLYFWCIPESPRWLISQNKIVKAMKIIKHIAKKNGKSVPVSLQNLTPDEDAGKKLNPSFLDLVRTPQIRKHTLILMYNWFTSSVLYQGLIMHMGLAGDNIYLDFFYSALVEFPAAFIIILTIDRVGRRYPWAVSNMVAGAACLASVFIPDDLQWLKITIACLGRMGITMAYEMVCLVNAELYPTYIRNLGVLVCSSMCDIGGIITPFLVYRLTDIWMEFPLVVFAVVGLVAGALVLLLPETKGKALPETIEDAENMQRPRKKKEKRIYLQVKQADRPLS

[2] = target: T2, Solute carrier family 22 member 1 (Rattus norvegicus, UniProt Q63089); format: functional, cell-based, Xenopus laevis, Oocyte
T2 sequence (Q63089 whole entry): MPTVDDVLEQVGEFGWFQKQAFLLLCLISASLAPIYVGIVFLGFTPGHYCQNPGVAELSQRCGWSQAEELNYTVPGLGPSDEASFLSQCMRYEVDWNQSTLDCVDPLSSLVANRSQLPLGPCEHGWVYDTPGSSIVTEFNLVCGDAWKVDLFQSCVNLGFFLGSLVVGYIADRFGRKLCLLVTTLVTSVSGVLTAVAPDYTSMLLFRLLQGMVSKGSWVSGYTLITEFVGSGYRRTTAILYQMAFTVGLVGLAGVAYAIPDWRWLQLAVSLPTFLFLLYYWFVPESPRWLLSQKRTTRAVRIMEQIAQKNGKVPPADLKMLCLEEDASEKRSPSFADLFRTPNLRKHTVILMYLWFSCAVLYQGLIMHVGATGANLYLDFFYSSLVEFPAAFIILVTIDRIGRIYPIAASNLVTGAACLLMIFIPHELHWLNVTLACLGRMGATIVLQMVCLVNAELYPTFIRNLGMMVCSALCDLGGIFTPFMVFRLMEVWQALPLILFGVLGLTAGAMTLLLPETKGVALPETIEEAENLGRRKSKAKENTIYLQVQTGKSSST

[3] = target: T1, Solute carrier family 22 member 2; assay: TP_TRANSPORTER: inhibition of TEA uptake (electrogenicity) in Xenopus laevis oocytes
[4] = target: T1, Solute carrier family 22 member 2; assay: TP_TRANSPORTER: inhibition of TEA uptake in Xenopus laevis oocytes; format: functional, cell-based, Oocyte
[5] = substrate: CNC(=O)c1cccnc1; assay: (§1) TP_TRANSPORTER: uptake in Xenopus laevis oocytes; format: functional, cell-based, Oocyte
[6] = substrate: C[n+]1ccc(-c2ccccc2)cc1; assay: as §1; format: functional, cell-based, Oocyte
[7] = substrate: N=C(N)N; assay: as §1; format: functional, cell-based, Oocyte
[8] = substrate: CC[N+](CC)(CC)CC; assay: cells, lysate or membranes named
[9] = substrate: C[N+](C)(C)CCO; assay: cells, lysate or membranes named
[10] = substrate: NCCc1c[nH]cn1; assay: cells, lysate or membranes named

With CCC[N+](CCC)(CCC)CCC [TETRAPROPYLAMMONIUM] the IC50 [1] was 6.2 µM and the IC50 [2] was 11.3 µM.

Molecule Nc1ccc(C(=O)NCC(=O)O)cc1 [AMINOHIPPURIC ACID] has an IC50 [1] of 4500 µM and an IC50 [2] of 1300 µM.

C[N+](C)(C)C [TETRAMETHYLAMMONIUM] was tested, and the IC50 [1] was 630 µM.

Work on CCCC[N+](CCCC)(CCCC)CCCC [TETRABUTHYLAMMONIUM] yielded a Ki [3] of 12 µM.

Molecule C[C@]12C[C@H](O)[C@H]3[C@@H](CCC4=CC(=O)CC[C@@]43C)[C@@H]1CC[C@@H]2C(=O)CO [CORTICOSTERONE] has an IC50 [1] of 4 µM and an IC50 [2] of 151 µM.

In the case of C=C[C@H]1C[N@@]2CC[C@H]1C[C@H]2[C@H](O)c1ccnc2ccc(OC)cc12 [QUININE], the Ki [4] is reported as 55 µM.

With CCCN(CCC)S(=O)(=O)c1ccc(C(=O)O)cc1 [PROBENECID] the IC50 [1] was 1700 µM and the IC50 [2] was 1640 µM.

CC[n+]1c(CC2C=C(C)N=C(c3ccccc3)N2C)ccc2ccccc21 (stereo unspecified) [Cyanine-863] was tested, and the IC50 [1] was 2.56 µM and the IC50 [2] was 0.51 µM.

CC(C)C(c1ccccc1)C(O)CC[N+]1(C)CCCCC1 (stereo unspecified) [MEPIPERPHENIDOL BROMIDE] was tested, and the IC50 [1] was 474 µM and the IC50 [2] was 7.1 µM.

O=C(O)CCC(=O)C(=O)O [ALPHA-KETOGLUTARIC ACID] showed an IC50 [1] of 700 µM and an IC50 [2] of 740 µM.

CNCCCN1c2ccccc2CCc2ccccc21 [DESIPRAMINE] gave an IC50 [1] of 10 µM.

COc1cc(C(O)CNC(C)C)ccc1O (stereo unspecified) [METIPRENALINE] gave an IC50 [2] of 37 µM.

CCN(CC)CCNC(=O)c1ccc(N)cc1 [PROCAINAMIDE] showed an IC50 [1] of 445 µM.

For C=C[C@H]1C[N@@]2CC[C@H]1C[C@@H]2[C@@H](O)c1ccnc2ccc(OC)cc12 [QUINIDINE], the IC50 [1] was 14.6 µM.

N=C(N)N [GUANIDINE] was tested, and the IC50 [1] was 171 µM and the IC50 [2] was 4470 µM.

B1: Solute carrier family 22 member 2 (Rattus norvegicus) (protein)
chain: MSTVDDILEHIGEFHLFQKQTFFLLALLSGAFTPIYVGIVFLGFTPDHHCWSPGAAKLSQRCGWSQAEELNYTVPGLGPSDEASFLSQCMRYEVDWNQSTLDCVDPLSSLAADRNQLPLGPCEHGWVYNTPGSSIVTEFNLVCAHSWMLDLFQSVVNVGFFIGAMMIGYLADRFGRKFCLLVTILINAISGALMAISPNYAWMLVFRFLQGLVSKAGWLIGYILITEFVGLGYRRMVGICYQIAFTVGLLILAGVAYVIPNWRWLQFAVTLPNFCFLLYFWCIPESPRWLISQNKIVKAMKIIKHIAKKNGKSVPVSLQNLTPDEDAGKKLNPSFLDLVRTPQIRKHTLILMYNWFTSSVLYQGLIMHMGLAGDNIYLDFFYSALVEFPAAFIIILTIDRVGRRYPWAVSNMVAGAACLASVFIPDDLQWLKITIACLGRMGITMAYEMVCLVNAELYPTYIRNLGVLVCSSMCDIGGIITPFLVYRLTDIWMEFPLVVFAVVGLVAGALVLLLPETKGKALPETIEDAENMQRPRKKKEKRIYLQVKQADRPLS
Molecule B1 has a Km [5] of 245 µM, a Km [6] of 17 µM and a Km [7] of 172 µM. For the same molecule, the Km [8] was 91 µM, the Km [9] was 604 µM and the Km [10] was 278 µM.

B2: Solute carrier family 22 member 1 (Rattus norvegicus) (protein)
chain: MPTVDDVLEQVGEFGWFQKQAFLLLCLISASLAPIYVGIVFLGFTPGHYCQNPGVAELSQRCGWSQAEELNYTVPGLGPSDEASFLSQCMRYEVDWNQSTLDCVDPLSSLVANRSQLPLGPCEHGWVYDTPGSSIVTEFNLVCGDAWKVDLFQSCVNLGFFLGSLVVGYIADRFGRKLCLLVTTLVTSVSGVLTAVAPDYTSMLLFRLLQGMVSKGSWVSGYTLITEFVGSGYRRTTAILYQMAFTVGLVGLAGVAYAIPDWRWLQLAVSLPTFLFLLYYWFVPESPRWLLSQKRTTRAVRIMEQIAQKNGKVPPADLKMLCLEEDASEKRSPSFADLFRTPNLRKHTVILMYLWFSCAVLYQGLIMHVGATGANLYLDFFYSSLVEFPAAFIILVTIDRIGRIYPIAASNLVTGAACLLMIFIPHELHWLNVTLACLGRMGATIVLQMVCLVNAELYPTFIRNLGMMVCSALCDLGGIFTPFMVFRLMEVWQALPLILFGVLGLTAGAMTLLLPETKGVALPETIEEAENLGRRKSKAKENTIYLQVQTGKSSST
With B2 the Km [7] was 1660 µM and the Km [10] was 300 µM.
